We go through 41 compounds from patent publication US9682995B2, “Amino-substituted isothiazoles” (BAYER PHARMA AKTIENGESELLSCHAFT, priority 2013, dated 2017).

Some results are limits rather than exact numbers.

The assay concerns spindle assembly checkpoint. The assay can be described thus: SAC-Formation - Nocodazole-Induced Assay. The format is cell-based. Particulars: Homo sapiens; HeLa cells, nocodazole 0.1 μg/ml, 24 h, phosphorylated histone H3 on serine 10. The source says:
The spindle assembly checkpoint assures the proper segregation of chromosomes during mitosis. Upon entry into mitosis, chromosomes begin to condensate which is accompanied by the phosphorylation of histone H3 on serine 10. Dephosphorylation of histone H3 on serine 10 begins in anaphase and ends at early telophase. Accordingly, phosphorylation of histone H3 on serine 10 can be utilized as a marker of cells in mitosis. Nocodazole is a microtubule destabilizing substance. Paclitaxel is a microtubule stabilizing compound. Thus, nocodazole as well as paclitaxel interfere with microtubule dynamics and mobilize the spindle assembly checkpoint. […] The mitotic breakthrough can be detected by the decrease of cells with phosphorylation of histone H3 on serine 10. This decline is used as a marker to determine the capability of compounds of the present invention to induce a mitotic breakthrough. The typical morphological alteration of nuclei with a prematurely completed mitosis after SAC-inhibition can be monitored via image analysis routines supporting those findings.
The nocodazole and paclitaxel variations were used to focus on compounds that are capable of inhibiting a SAC induced by both microtubule destabilization as well as microtubule stabilization. When SAC inducing agents and compounds are given simultaneously, inhibitors that effectively block the SAC during formation or abrogation are identified. When cells are incubated with a SAC inducing agent and the SAC interfering compound is given after a defined time, inhibitors are identified that effectively block SAC abrogation.
Cultivated cells of the human cervical tumor cell line HeLa (ATCC CCL-2) were plated at a density of 1000 cells/well in a 1536-well microtiter plate in 2 μl PAA Ham's F12 Medium supplemented with 1% (v/v) glutamine, 1% (v/v) penicillin, 1% (v/v) streptomycin and 10% (v/v) fetal calf serum. After incubation overnight at 37° C., 10 μl/well nocodazole at a final concentration of 0.1 μg/ml were added to cells. Test compounds solubilized in dimethyl sulfoxide (DMSO) were added at various concentrations (0 μM, as well as in the range of 0.005 μM-20 μM; the final concentration of the solvent DMSO was 0.5% (v/v)). Cells were incubated for 24 h at 37° C. in the presence of test compounds in combination with nocodazole. Thereafter, cells were fixed in 4% (v/v) paraformaldehyde in phosphate buffered saline (PBS) at 4° C. overnight then permeabilized in 0.1% (v/v) Triton X™ 100 in PBS at room temperature for 20 min and blocked in 0.5% (v/v) bovine serum albumin (BSA) in PBS at room temperature for 15 min. After washing with PBS, 5 μl/well antibody solution (anti-phospho-histone H3 clone 3H10, FITC; Millipore, Cat #16-222; 1:1000 dilution) was added to cells, which were incubated for 2 h at room temperature. Afterwards, cells were washed with PBS and 5 μl/well solution of HOECHST 33342 dye (5 μg/ml) was added to cells and cells were incubated 15 min at room temperature in the dark. Cells were washed twice with PBS then covered with PBS and stored at 4° C. until analysis. Images were acquired with a PERKIN ELMER OPERA™ High-Content Analysis reader. Images were analyzed with image analysis software MetaXpress™ from Molecular devices utilizing the Mitotic Index application module. In this assay both labels HOECHST 33342 and phosphorylated Histone H3 on serine 10 were measured. HOECHST 33342 labels the DNA and is used to count the cell number. The staining of phosphorylated Histone H3 on serine 10 determines the number of mitotic cells. […] Otherwise cells were arrested at G2/M phase of the cell cycle progression. The raw assay data were further analyzed by four-parametric hill equation using Genedata's Assay Analyzer and Condoseo software.
Broadly, the IC50 is the concentration needed to halve the response being measured. With `COc1ccc(NC(=O)c2c(C)nsc2Nc2nc3c(C(F)(F)F)ccnc3s2)cn1` [Example 123], the half-maximal inhibitory concentration (IC50) was 0.22 µM.

With `COc1ccc(NC(=O)c2c(C)nsc2Nc2nc3ncc(C(F)(F)F)cc3s2)cn1` [Example 124], the IC50 turned out to be 18 µM.

Take `COc1ccnc(Nc2snc(C)c2C(=O)Nc2ccc(F)c(F)c2)c1` [Example 125]: the concentration for half-maximal inhibition (IC50) was greater than 20 µM.

With `COc1ccc(NC(=O)c2c(C)nsc2Nc2ncc(C(=O)O)s2)cn1` [Example 126], the IC50 turned out to be 19 µM.

For the compound `CCc1ccccc1NC(=O)c1c(C)nsc1Nc1nc(C)cc(C)n1` [Example 127], the half-inhibitory concentration (IC50) is greater than 20 µM.

Take `COc1ccc(NC(=O)c2c(C)nsc2Nc2ncc(C(=O)N3CCOCC3)s2)cn1` [Example 128]: the concentration for half-maximal inhibition (IC50) worked out at 13 µM.

Regarding `COc1ccc(NC(=O)c2c(C)nsc2Nc2nc3cnccc3s2)cn1` [Example 129], the half-maximal inhibitory concentration (IC50) came out at 14 µM.

In the case of `Cc1nsc(Nc2cc(C(=O)N(C)C)ccn2)c1C(=O)Nc1ccc(F)c(F)c1` [Example 130], the IC50 was greater than 20 µM.

On to `Cc1nsc(Nc2nc(C(=O)N(C)C)cs2)c1C(=O)Nc1ccc(F)c(F)c1` [Example 131], for which the IC50 was 11 µM.

Consider `CNc1cncc(Nc2snc(C)c2C(=O)Nc2ccc(F)c(F)c2)n1` [Example 132], for which the IC50 was found to be 14 µM.

With `Cc1nsc(Nc2cncc(C(=O)N3CCN(C)CC3)n2)c1C(=O)Nc1ccc(F)c(F)c1` [Example 133], the IC50 is 15 µM.

For the compound `CCc1ccccc1NC(=O)c1c(C)nsc1Nc1cc(OC)ccn1` [Example 134], the IC50 is greater than 20 µM.

Take `CCc1ccccc1NC(=O)c1c(C)nsc1Nc1ncc(OC)cn1` [Example 135]: the IC50 came to 16 µM.

On to `CCc1cnc(Nc2snc(C)c2C(=O)Nc2ccccc2CC)nc1` [Example 136], for which the half-maximal inhibitory concentration (IC50) came to 6.8 µM.

With `CCc1ccccc1NC(=O)c1c(C)nsc1Nc1ncccn1` [Example 137], the IC50 was greater than 20 µM.

With `CCc1ccccc1NC(=O)c1c(C)nsc1Nc1nccc2ccccc12` [Example 138], the IC50 came to 17 µM.

For `CCOC(=O)c1cc(C)nc(Nc2snc(C)c2C(=O)Nc2ccccc2CC)c1` [Example 139], the IC50 was greater than 20 µM.

Consider `COC(=O)c1ccnc(Nc2snc(C)c2C(=O)Nc2ccc(OC)nc2)c1` [Example 140], for which the IC50 was greater than 20 µM.

`CCc1ccccc1NC(=O)c1c(C)nsc1Nc1ncccc1C` [Example 141]: the 50% inhibitory concentration (IC50) is 19 µM.

On to `CCc1ccccc1NC(=O)c1c(C)nsc1Nc1ccccn1` [Example 142], for which the IC50 came out at 14 µM.

For the compound `CCOc1ccc(NC(=O)c2c(C)nsc2Nc2cc(C#N)ccn2)cn1` [Example 143], the IC50 was greater than 20 µM.

Take `CCc1ccccc1NC(=O)c1c(C)nsc1Nc1ncccc1OC` [Example 144]: the half-inhibitory concentration (IC50) was greater than 20 µM.

On to `CCc1ccccc1NC(=O)c1c(C)nsc1Nc1ccc(C(=O)OC)cn1` [Example 145], for which the IC50 worked out at 7.2 µM.

On to `CCc1ccccc1NC(=O)c1c(C)nsc1Nc1cnc(C(=O)OC)cn1` [Example 146], for which the 50% inhibitory concentration (IC50) amounted to 1.4 µM.

For the compound `COC(=O)c1cnc(Nc2snc(C)c2C(=O)Nc2ccc(OC)nc2)o1` [Example 147], the concentration for half-maximal inhibition (IC50) worked out at 13 µM.

On to `CCc1ccccc1NC(=O)c1c(C)nsc1Nc1cccc(OC)n1` [Example 148], for which the IC50 was greater than 20 µM.

For the compound `CCc1ccccc1NC(=O)c1c(C)nsc1Nc1cc(C(=O)OC)ccn1` [Example 149], the IC50 was 4.1 µM.

As to `CCOC(=O)c1cnc(Nc2snc(C)c2C(=O)Nc2ccc(OC)nc2)o1` [Example 150], the half-inhibitory concentration (IC50) is 16 µM.

Turning to `Cc1nsc(Nc2ccc(C(N)=O)cn2)c1C(=O)Nc1ccc(Cl)c(F)c1` [Example 151], the IC50 came out at 1.7 µM.

In the case of `COc1ccc(NC(=O)c2c(C)nsc2Nc2ncc(C(N)=O)s2)cn1` [Example 152], the IC50 is greater than 20 µM.

As for `Cc1nsc(Nc2ccc(C(=O)N(C)C)nn2)c1C(=O)Nc1ccc(F)c(F)c1` [Example 153], the half-inhibitory concentration (IC50) stood at 1.5 µM.

Take `CCNC(=O)c1cnc(Nc2snc(C)c2C(=O)Nc2ccc(OC)nc2)s1` [Example 154]: the IC50 turned out to be 4.3 µM.

Regarding `COc1ccc(NC(=O)c2c(C)nsc2Nc2ncc(C(=O)N(C)C)s2)cn1` [Example 155], the half-maximal inhibitory concentration (IC50) worked out at 5.8 µM.

Take `COc1ccc(NC(=O)c2c(C)nsc2Nc2nc(-c3ccc(Cl)cc3)cs2)cn1` [Example 156]: the half-maximal inhibitory concentration (IC50) was 0.55 µM.

Regarding `COc1ccc(Oc2ccc(NC(=O)c3c(C)nsc3Nc3ccc(C#N)cn3)cn2)cc1` [Example 157], the concentration for half-maximal inhibition (IC50) turned out to be 2.8 µM.

`COc1ccc(NC(=O)c2c(C)nsc2Nc2ncc(C#N)s2)cn1` [Example 158]: the IC50 is 4.2 µM.

Consider `CCc1ccccc1NC(=O)c1c(C)nsc1Nc1ncnc(C)c1C` [Example 159], for which the IC50 was determined as 15 µM.

Take `COc1ccc(NC(=O)c2c(C)nsc2Nc2nc(C(N)=O)cs2)cn1` [Example 160]: the IC50 was determined as 2.6 µM.

On to `CCc1ccccc1NC(=O)c1c(C)nsc1Nc1cnc(C(N)=O)cn1` [Example 161], for which the concentration for half-maximal inhibition (IC50) amounted to 15 µM.

Take `COc1ccc(NC(=O)c2c(C)nsc2Nc2ccc(C#N)cn2)cc1F` [Example 162]: the 50% inhibitory concentration (IC50) is greater than 20 µM.

With `Cc1nsc(Nc2cnccn2)c1C(=O)Nc1ccc(OC2CCCCC2)nc1` [Example 163], the IC50 came to 1.3 µM.
